In ChEMBL document CHEMBL5126509, “Dual target inhibitors based on EGFR: Promising anticancer agents for the treatment of cancers (2017-)” (Eur J Med Chem, 2022):
Each block holds one compound with its values, some of them ahead of it.

What was measured:
[1] = target: Fibroblast growth factor receptor 1 (Homo sapiens, UniProt P11362); assay: Inhibition of N-terminal GST-tagged recombinant wild type human FGFR1 (398 to 822 residues) expressed in baculovirus infected Sf21 cells incubated for 1 hr in presence of ATP by caliper mobility shift assay
NCI-H1975 [2] = assay: Antiproliferative activity against human NCI-H1975 cells assessed as cell growth inhibition incubated for 72 hrs by MTS assay; assay type: functional, cell-based; conditions: NCI-H1975, 72 h
B16 = assay: Antiproliferative activity against mouse B16 cells assessed as cell growth inhibition incubated for 42 hrs by MTT assay; assay type: functional, cell-based; conditions: B16, 42 h
[3] = target: T1, Vascular endothelial growth factor receptor 2 (Homo sapiens, UniProt P35968); assay: Inhibition of VEGFR-2 (unknown origin) using FAM-labeled peptide as substrate incubated for 10 mins in presence of ATP by caliper mobility shift assay
MCF7 [4] = assay: Antiproliferative activity against human MCF7 cells assessed as cell growth inhibition incubated for 42 hrs by MTT assay; assay type: functional, cell-based; conditions: MCF7, 42 h
HCT-116 [5] = assay: Antiproliferative activity against human HCT-116 cells assessed as cell growth inhibition incubated for 42 hrs by MTT assay; assay type: functional, cell-based; conditions: HCT-116, 42 h
[6] = target: T2, Epidermal growth factor receptor (Homo sapiens, UniProt P00533); assay: Inhibition of EGFR (unknown origin) using FAM-labeled peptide as substrate incubated for 10 mins in presence of ATP by caliper mobility shift assay
[7] = target: Hepatocyte growth factor receptor (Homo sapiens, UniProt P08581); assay: Inhibition of c-MET (unknown origin) incubated for 1 hr by Z-lyte kinase assay
[8] = target: T3, Epidermal growth factor receptor (Homo sapiens, UniProt P00533, T790M); assay: Inhibition of EGFR T790M mutant (unknown origin) incubated for 1 hr by Z-lyte kinase assay
A-431 = assay: Antiproliferative activity against human A-431 cells assessed as cell growth inhibition; assay type: functional, cell-based
SK-BR-3 = assay: Antiproliferative activity against human SK-BR-3 cells assessed as cell growth inhibition; assay type: functional, cell-based
[9] = target: T2, Epidermal growth factor receptor; assay: Inhibition of EGFR (unknown origin)
[10] = target: Insulin-like growth factor 1 receptor (Homo sapiens, UniProt P08069); assay: Inhibition of IGF1R (unknown origin)
[11] = target: Tyrosine-protein kinase CSK (Homo sapiens, UniProt P41240); assay: Inhibition of CSK (unknown origin) by ADP-Glo kinase assay
[12] = target: T2, Epidermal growth factor receptor; assay: Inhibition of EGFR (unknown origin) by ADP-Glo kinase assay
HCT-116 [13] = assay: Antiproliferative activity against human HCT-116 assessed as cell growth inhibition measured after 72 hrs by MTT assay; assay type: functional, cell-based; conditions: HCT-116, 72 h
MCF7 [14] = assay: Antiproliferative activity against human MCF7 assessed as cell growth inhibition measured after 72 hrs by MTT assay; assay type: functional, cell-based; conditions: MCF7, 72 h
Tubulin = assay: Inhibition of tubulin polymerization in human HCT-116 cells incubated for 18 to 24 hrs by horseradish peroxidase based ELISA method; assay type: cell-based
A549 = assay: Antiproliferative activity against human A549 cells assessed as cell growth inhibition measured after 72 hrs by MTT assay; assay type: functional, cell-based; conditions: A549, 72 h
KG-1 = assay: Antiproliferative activity against human KG-1 cells assessed as cell growth inhibition measured after 72 hrs by MTT assay; assay type: functional, cell-based; conditions: KG-1, 72 h
Histone deacetylase = assay: Inhibition of HDAC in human HeLa cell nuclear extract using Boc-Lys (acetyl)-AMC as substrate preincubated for 5 mins followed by substrate addition measured after 30 mins by microplate reader analysis; assay type: cell-free
MDA-MB-468 = assay: Antiproliferative activity against human MDA-MB-468 cells assessed as cell growth inhibition measured after 72 hrs by MTT assay; assay type: functional, cell-based; conditions: MDA-MB-468, 72 h
HeLa = assay: Antiproliferative activity against human HeLa cells assessed as cell growth inhibition measured after 72 hrs by MTT assay; assay type: functional, cell-based
MDA-MB-231 = assay: Antiproliferative activity against human MDA-MB-231 cells assessed as cell growth inhibition measured after 72 hrs by MTT assay; assay type: functional, cell-based; conditions: MDA-MB-231, 72 h
[15] = target: T2, Epidermal growth factor receptor; assay: Inhibition of EGFR (unknown origin) incubated for 30 mins in presence of ATP by fluorescence based analysis
[16] = target: T3, Epidermal growth factor receptor; assay: Inhibition of EGFR T790M mutant (unknown origin)
NCI-H1975 [17] = assay: Antiproliferative activity against human NCI-H1975 cells assessed as cell growth inhibition; assay type: functional, cell-based
[18] = target: T1, Vascular endothelial growth factor receptor 2; assay: Inhibition of VEGFR2 (unknown origin)
[19] = target: Epidermal growth factor receptor (Homo sapiens, UniProt P00533, L858R/T790M); assay: Inhibition of EGFR L858R/T790M mutant (unknown origin)
[20] = target: T2, Epidermal growth factor receptor; assay: Binding affinity to GST-tagged human recombinant EGFR expressed in baculovirus infected Sf9 insect cells assessed as inhibition constant using poly(Glu,Tyr) 4:1 as substrate incubated for 60 mins in presence of [gamma33P]ATP by microplate scintillation counter analysis
[21] = target: Platelet-derived growth factor receptor beta (Homo sapiens, UniProt P09619); assay: Binding affinity to GST-tagged human recombinant PDFGR beta expressed in baculovirus infected Sf9 insect cells assessed as inhibition constant using poly(Ala,Glu,Lys,Tyr) 6:2:5.1 as substrate incubated for 60 mins in presence of [gamma33P]ATP by microplate scintillation counter analysis
[22] = target: T3, Epidermal growth factor receptor; assay: Inhibition of human EGFR T790M mutant expressed in baculovirus expression system using CAGAGAIETDKEYYTVKD as substrate preincubated for 10 mins followed by substrate and ATP addition measured after 1 hr by TR-FRET assay
[23] = target: T2, Epidermal growth factor receptor; assay: Inhibition of human EGFR expressed in baculovirus expression system using CAGAGAIETDKEYYTVKD as substrate preincubated for 10 mins followed by substrate and ATP addition measured after 1 hr by TR-FRET assay

T1 sequence (P35968 whole entry): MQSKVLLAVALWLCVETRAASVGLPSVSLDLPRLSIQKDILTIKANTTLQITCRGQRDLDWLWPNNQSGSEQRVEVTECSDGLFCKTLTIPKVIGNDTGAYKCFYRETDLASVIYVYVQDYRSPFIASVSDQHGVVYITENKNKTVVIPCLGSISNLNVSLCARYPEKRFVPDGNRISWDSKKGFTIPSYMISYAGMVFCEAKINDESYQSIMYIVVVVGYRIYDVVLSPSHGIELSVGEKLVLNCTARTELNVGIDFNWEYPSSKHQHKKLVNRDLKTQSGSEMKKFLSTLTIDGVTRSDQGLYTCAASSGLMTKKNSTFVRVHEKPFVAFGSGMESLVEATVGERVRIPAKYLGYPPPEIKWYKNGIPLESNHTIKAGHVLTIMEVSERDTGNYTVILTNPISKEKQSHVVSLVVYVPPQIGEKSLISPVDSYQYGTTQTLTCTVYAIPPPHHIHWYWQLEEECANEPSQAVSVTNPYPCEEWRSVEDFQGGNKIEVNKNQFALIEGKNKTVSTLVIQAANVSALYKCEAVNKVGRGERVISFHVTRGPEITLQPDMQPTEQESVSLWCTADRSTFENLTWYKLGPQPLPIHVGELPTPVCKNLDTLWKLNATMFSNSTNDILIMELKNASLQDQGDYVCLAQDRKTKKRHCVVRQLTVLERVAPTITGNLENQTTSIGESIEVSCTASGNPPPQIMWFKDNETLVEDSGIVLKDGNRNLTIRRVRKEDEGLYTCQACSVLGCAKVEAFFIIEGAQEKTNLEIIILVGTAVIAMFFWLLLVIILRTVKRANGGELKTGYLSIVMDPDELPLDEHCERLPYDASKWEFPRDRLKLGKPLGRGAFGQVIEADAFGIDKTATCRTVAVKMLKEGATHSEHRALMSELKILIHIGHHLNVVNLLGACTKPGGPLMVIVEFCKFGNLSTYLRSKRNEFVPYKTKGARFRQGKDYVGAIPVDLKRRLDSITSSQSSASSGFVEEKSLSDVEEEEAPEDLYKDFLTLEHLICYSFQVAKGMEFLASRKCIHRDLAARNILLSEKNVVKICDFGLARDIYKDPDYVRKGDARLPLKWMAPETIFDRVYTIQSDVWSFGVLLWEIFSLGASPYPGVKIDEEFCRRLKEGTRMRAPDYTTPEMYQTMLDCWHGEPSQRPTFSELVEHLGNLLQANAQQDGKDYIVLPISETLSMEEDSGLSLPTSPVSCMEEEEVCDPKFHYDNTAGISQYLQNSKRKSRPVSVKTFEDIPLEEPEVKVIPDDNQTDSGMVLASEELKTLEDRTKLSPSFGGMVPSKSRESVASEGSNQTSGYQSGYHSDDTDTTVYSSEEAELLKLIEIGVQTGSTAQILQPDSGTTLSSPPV
Sequence of Hepatocyte growth factor receptor (P08581 whole entry): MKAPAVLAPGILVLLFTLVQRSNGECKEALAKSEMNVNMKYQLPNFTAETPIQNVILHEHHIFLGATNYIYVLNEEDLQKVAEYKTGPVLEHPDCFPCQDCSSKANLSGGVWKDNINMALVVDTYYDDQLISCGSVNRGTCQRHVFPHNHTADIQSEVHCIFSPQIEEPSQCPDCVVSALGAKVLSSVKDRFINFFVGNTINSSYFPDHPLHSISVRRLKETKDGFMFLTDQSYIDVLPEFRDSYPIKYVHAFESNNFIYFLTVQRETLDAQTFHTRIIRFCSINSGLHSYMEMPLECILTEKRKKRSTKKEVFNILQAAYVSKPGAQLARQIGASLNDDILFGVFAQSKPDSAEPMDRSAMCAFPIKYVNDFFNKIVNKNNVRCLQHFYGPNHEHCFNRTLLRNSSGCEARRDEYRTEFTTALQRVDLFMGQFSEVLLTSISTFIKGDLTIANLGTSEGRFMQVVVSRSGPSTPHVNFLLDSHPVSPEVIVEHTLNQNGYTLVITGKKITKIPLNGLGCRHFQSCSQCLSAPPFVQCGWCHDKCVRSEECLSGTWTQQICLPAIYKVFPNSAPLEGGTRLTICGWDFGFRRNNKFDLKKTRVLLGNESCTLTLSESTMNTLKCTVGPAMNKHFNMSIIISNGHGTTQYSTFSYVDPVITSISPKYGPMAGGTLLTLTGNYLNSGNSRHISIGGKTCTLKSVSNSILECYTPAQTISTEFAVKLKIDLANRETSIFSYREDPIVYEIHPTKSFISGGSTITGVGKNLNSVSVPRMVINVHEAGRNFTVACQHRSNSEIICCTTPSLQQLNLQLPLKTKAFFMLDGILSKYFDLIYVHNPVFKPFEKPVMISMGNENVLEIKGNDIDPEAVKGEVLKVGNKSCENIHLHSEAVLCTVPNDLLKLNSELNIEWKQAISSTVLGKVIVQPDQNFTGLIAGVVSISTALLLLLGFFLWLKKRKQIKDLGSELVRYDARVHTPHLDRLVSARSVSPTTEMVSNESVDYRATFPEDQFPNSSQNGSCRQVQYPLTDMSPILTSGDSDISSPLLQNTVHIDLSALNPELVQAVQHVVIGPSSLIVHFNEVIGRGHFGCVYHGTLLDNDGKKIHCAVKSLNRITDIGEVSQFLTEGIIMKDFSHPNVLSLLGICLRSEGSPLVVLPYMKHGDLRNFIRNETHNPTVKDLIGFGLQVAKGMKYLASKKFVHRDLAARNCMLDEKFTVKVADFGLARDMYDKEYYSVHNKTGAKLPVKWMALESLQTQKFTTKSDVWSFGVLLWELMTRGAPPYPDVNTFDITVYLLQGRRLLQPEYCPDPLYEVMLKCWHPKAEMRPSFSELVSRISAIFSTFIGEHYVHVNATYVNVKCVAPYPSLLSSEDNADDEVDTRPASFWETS
T3 sequence (P00533 25-1210 T790M limits assumed): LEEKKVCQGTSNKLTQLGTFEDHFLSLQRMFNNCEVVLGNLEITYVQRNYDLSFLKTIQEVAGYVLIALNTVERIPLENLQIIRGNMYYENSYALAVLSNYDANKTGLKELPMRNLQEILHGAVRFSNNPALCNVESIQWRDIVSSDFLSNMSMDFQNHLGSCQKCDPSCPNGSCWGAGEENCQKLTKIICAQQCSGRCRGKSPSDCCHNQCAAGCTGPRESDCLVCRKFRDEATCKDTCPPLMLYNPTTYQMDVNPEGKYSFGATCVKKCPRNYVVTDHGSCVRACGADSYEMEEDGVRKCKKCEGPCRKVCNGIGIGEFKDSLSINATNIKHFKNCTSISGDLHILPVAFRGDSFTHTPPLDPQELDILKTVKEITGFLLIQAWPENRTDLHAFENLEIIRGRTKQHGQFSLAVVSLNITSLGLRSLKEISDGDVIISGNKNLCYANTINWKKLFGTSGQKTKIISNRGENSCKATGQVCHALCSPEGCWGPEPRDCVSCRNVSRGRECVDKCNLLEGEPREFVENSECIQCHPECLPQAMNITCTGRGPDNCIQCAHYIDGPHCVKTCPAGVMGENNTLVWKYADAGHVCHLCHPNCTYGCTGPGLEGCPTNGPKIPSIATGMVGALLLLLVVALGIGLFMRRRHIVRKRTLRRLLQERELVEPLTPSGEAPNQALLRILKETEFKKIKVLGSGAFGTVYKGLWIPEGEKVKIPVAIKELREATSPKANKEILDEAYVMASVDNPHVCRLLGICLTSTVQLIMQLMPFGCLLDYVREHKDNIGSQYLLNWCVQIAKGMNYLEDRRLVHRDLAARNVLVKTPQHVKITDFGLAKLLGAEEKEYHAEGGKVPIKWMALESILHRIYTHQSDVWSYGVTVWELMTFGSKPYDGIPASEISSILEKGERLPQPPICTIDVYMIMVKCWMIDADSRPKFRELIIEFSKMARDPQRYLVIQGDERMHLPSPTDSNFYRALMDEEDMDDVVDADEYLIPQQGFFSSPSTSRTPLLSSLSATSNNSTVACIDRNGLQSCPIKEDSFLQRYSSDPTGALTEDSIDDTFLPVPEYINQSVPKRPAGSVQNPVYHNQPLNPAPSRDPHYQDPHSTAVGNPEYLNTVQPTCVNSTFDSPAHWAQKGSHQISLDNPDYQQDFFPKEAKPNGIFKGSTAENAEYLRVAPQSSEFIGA
T2 sequence (P00533 whole entry): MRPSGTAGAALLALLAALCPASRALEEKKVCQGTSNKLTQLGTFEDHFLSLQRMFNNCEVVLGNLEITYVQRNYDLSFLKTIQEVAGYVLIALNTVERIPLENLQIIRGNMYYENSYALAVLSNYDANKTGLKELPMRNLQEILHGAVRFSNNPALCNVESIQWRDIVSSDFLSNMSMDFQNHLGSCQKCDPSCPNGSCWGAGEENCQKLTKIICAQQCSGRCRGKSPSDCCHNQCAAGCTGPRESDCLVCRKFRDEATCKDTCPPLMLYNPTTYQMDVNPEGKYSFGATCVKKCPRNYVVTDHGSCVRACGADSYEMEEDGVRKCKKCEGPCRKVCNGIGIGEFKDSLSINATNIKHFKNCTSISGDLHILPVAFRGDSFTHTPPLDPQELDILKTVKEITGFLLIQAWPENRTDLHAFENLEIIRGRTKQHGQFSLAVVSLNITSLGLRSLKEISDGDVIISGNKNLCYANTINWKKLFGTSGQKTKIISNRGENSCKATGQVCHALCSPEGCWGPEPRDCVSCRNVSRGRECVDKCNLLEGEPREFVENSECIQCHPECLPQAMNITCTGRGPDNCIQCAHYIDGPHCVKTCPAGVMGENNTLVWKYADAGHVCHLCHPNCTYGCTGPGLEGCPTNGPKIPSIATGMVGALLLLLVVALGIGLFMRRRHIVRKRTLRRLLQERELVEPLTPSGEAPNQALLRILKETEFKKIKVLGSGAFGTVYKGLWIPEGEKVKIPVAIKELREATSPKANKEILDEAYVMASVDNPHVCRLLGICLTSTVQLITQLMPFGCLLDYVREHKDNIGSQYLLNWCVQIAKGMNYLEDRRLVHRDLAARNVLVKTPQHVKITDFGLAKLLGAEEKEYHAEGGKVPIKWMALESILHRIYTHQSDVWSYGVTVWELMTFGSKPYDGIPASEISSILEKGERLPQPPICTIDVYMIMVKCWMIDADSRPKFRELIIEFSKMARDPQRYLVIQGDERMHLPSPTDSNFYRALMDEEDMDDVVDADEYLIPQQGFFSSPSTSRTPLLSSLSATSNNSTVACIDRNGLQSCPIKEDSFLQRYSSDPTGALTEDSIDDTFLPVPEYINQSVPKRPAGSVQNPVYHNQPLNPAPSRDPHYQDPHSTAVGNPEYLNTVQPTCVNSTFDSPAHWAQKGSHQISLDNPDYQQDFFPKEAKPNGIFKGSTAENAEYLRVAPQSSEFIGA

IC50 [7]: 518 nM
IC50 [8]: 97 nM
SMILES: CCc1ccc(Cn2cc(-c3cc(-c4ccc(Br)cc4)nc(N)n3)c3ccccc32)cc1

IC50 (A-431): 1890 nM
IC50 (SK-BR-3): 1930 nM
IC50 [9]: 597 nM
IC50 [10]: 908 nM
SMILES: CCOc1cc2ncc(C#N)c(Nc3ccc(OCc4ccccc4)cc3)c2cc1NC(=O)/C=C/c1cccnc1

IC50 [15]: 186 nM
SMILES: Cc1nn(-c2ccc(F)cc2)c2ncnc(Nc3ccc(F)c(Cl)c3)c12

IC50 [7]: 101 nM
IC50 [8]: 195 nM
SMILES: Nc1nc(-c2ccc(Br)cc2)cc(-c2cn(Cc3cccc(Cl)c3)c3ccccc23)n1

IC50 [7]: 595 nM
IC50 [8]: 94 nM
SMILES: CC(C)c1ccc(Cn2cc(-c3cc(-c4ccc(Br)cc4)nc(N)n3)c3ccccc32)cc1

Ki [20]: 170 nM
Ki [21]: 81 nM
SMILES: Nc1nc(Nc2ccc(COc3cccc(F)c3)cc2)c2c(n1)[nH]c1ccc(O)cc12

Further lines, the compound ahead of its results:

SMILES: CN1CCN(c2ccc(Nc3ncc(Br)c(Nc4ccc5cn[nH]c5c4)n3)cc2)CC1
IC50 [1]: 17.6 nM
IC50 (NCI-H1975 [2]): 336 nM

SMILES: COc1cc2ncnc(Sc3cccc(NC(=S)Nc4ccc(Br)c(C(F)(F)F)c4)c3)c2cc1OC
IC50 (B16): 5570 nM
IC50 [3]: 80 nM
IC50 (MCF7 [4]): 5570 nM
IC50 (HCT-116 [5]): 5570 nM
IC50 [6]: 10 nM

SMILES: COc1ccc(CCOc2ccc(C(=O)/C=C/c3ccc(O)c(O)c3)cc2OC)cc1OC
IC50 [11]: 5160 nM
IC50 [12]: 11100 nM

SMILES: CCc1nnc2c(Nc3ccc(C(=O)/C=C/c4cc(OC)c(OC)c(OC)c4)cc3)nc3ccccc3n12
IC50 (HCT-116 [13]): 3610 nM
IC50 (MCF7 [14]): 1650 nM
IC50 (Tubulin): 8840 nM

SMILES: COc1cc(NC(=O)CCCCCCC(=O)NO)ccc1Nc1nccc(-c2cn(C)c3ccccc23)n1
IC50 (A549): 2190 nM
IC50 (KG-1): 420 nM
IC50 (Histone deacetylase): 85 nM
IC50 (MDA-MB-468): 230 nM
IC50 (HeLa): 1850 nM
IC50 (MDA-MB-231): 600 nM

SMILES: COc1cc2ncnc(Oc3cccc(NC(=S)Nc4ccc(Cl)c(C(F)(F)F)c4)c3)c2cc1OC
IC50 (B16): 5570 nM
IC50 [3]: 50 nM
IC50 (MCF7 [4]): 5570 nM
IC50 (HCT-116 [5]): 5570 nM
IC50 [6]: 20 nM

SMILES: CCOc1cc2ncc(C#N)c(Nc3ccc(OCc4ccccn4)c(Cl)c3)c2cc1NC(=O)/C=C/CN(C)C [NERATINIB]
IC50 (A-431): 2150 nM

SMILES: C=CC(=O)Nc1cc2c(Nc3ccc(Br)cc3F)ncnc2cc1OCCNC(=O)CN(C)C
IC50 (A-431): 14 nM
IC50 [16]: 11 nM
IC50 (NCI-H1975 [17]): 130 nM
IC50 [18]: 103 nM
IC50 [9]: 2 nM
IC50 [19]: 3 nM

SMILES: O=C(Cc1ccccc1)Nc1cccc(-c2nc3n(c2-c2ccnc(Nc4ccc(N5CCOCC5)cc4)n2)CCS3)c1
IC50 [22]: 66 nM
IC50 [23]: 35.5 nM
